Reference: a compilation of properties of binary mixtures (doi:10.1016/j.molliq.2020.113742)

Assay: xn = mol fraction of the nth substance listed

CCCC[N+]1(C)CCCCC1.F[P-](F)(F)(F)(F)F + CCCC[N+]1(C)CCCC1.F[P-](F)(F)(F)(F)F
viscosity [mPa·s], 102 kPa
Settings	353.15 K	363.15 K	373.15 K	383.15 K
x1 = 0.3	126	85	58	–
x1 = 0.5	–	101	68	48
x1 = 0.7	194	125	84	59

CCCC[N+]1(C)CCCC1.F[P-](F)(F)(F)(F)F + CCCC[n+]1cccc(C)c1.F[P-](F)(F)(F)(F)F
viscosity [mPa·s], 101.3 kPa
Settings	x2 = 0.2	x2 = 0.3	x2 = 0.4	x2 = 0.5	x2 = 0.6	x2 = 0.7	x2 = 0.8	x2 = 0.9
303.13 K	–	–	746	–	–	–	–	–
308.15 K	–	–	–	480	427	–	–	–
313.15 K	–	448	–	352	313	277	–	–
318.15 K	–	334	–	–	234	208	190	–
323.15 K	–	253	220	199	178	159	146	130
328.15 K	221	195	–	153	138	–	113	–
333.15 K	173	153	133	121	–	97	89	80
338.15 K	138	121	106	–	87	78	71	65
343.15 K	–	98	–	78	–	63	58	53
348.15 K	90	79	70	63	–	52	48	43
353.15 K	74	65	–	53	48	43	40	36
358.15 K	–	55	–	44	40	36	33	30
363.15 K	51	46	41	–	–	31	28	26
